Experimental data taken from publication PMC4778124, “A continuous sirtuin activity assay without any coupling to enzymatic or chemical reactions” (Scientific Reports, 2016).
Counter-ions that a name gives are not always drawn. Like-named read-outs stand apart in the source and are kept apart here. Values belong to the molecule of their own block, whether it stands above or below them. Starred links: 1 amine or outer side, 2 acyl side, 3 side chain; linkers in the order of their positions; H or OH if unused. Positions of bridges follow the written chain, without caps; N, C: chain ends. Non-standard residues stand in square brackets, D forms with d. Residues, ends and D or L forms follow the SMILES beside them. *: point of attachment. X1 = CCCCCCCCCCCCCC(=S)N(C)CCCC[C@H](N[*:1])C(=O)[*:2]; Tfa = O=C(C(F)(F)F)*

Legend:
Sirt6 [1] = molecular target: T1, Sirt6 (Homo sapiens, UniProt Q8N6T7); assay: Ki determination with substrate 3, 96-well MTP fluorescence reader; format: biochemical; details: for type of inhibition with respect to the peptide substrate: Sirt6, substrate 3
T1 construct: His-tag; made in house; host or cells: E. coli BL21 DE3
T1 sequence (Q8N6T7 whole entry): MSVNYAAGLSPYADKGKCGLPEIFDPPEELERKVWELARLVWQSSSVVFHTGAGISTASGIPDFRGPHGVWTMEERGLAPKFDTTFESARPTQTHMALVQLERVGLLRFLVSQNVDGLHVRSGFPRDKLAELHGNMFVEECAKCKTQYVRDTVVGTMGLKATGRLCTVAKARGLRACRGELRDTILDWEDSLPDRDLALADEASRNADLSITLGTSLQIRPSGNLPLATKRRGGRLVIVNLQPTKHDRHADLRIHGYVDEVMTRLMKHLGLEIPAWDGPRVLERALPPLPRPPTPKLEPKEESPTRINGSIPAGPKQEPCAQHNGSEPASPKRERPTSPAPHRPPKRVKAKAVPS
Method: All measurements were done in duplicates.
(§1) Supplementary Figure S13. […] Data are presented as mean ± s.d. (n=2) and lines represent the Michaelis-Menten-plot (left) and secondary plots (right). The apparent KM or Vmax^app-1 values from v/[S] characteristics were plotted against the corresponding inhibitor concentration.
as §1, with “S14. […] The reactions were performed with 0.5 µM Sirt6 and either 500 µM NAD^+ and varying concentrations of 3 (2-100 µM).” for “S13.”, “apparent” for “apparent KM or”
Supplementary Figure S15. Kinetic characteristics for sirtuin inhibitor 8. The reactions were performed with 0.01 µM Sirt2 /0.1 µM Sirt3 /0.5 µM Sirt6 and 500 µM NAD^+ and varying concentrations of 3 (0.07-100 µM). […] Data are presented as mean ± s.d. (n=2) and lines represent the Michaelis-Menten-plot (left) and secondary plots (right). The apparent Vmax^app-1 values from v/[S] characteristics were plotted against the corresponding inhibitor concentration.

Sirt6 [2] = system: Sirt6; design: method as in PMID 25004411; details: cited from earlier work; for inhibition of enzymatic activity: 200 μM concentration
Sirt1 = molecular target: T2, Sirt1 (Homo sapiens, UniProt Q96EB6); assay: HPLC based activity assay, influence of resveratrol on Sirt1 mediated deacylation of 3; format: biochemical; details: 0-100 µM resveratrol; Sirt1 0.5 µM, 3 20 µM, NAD+ 500 µM, 60 minutes at 37°C
T2 construct: made in house
T2 sequence (Q96EB6 1-747): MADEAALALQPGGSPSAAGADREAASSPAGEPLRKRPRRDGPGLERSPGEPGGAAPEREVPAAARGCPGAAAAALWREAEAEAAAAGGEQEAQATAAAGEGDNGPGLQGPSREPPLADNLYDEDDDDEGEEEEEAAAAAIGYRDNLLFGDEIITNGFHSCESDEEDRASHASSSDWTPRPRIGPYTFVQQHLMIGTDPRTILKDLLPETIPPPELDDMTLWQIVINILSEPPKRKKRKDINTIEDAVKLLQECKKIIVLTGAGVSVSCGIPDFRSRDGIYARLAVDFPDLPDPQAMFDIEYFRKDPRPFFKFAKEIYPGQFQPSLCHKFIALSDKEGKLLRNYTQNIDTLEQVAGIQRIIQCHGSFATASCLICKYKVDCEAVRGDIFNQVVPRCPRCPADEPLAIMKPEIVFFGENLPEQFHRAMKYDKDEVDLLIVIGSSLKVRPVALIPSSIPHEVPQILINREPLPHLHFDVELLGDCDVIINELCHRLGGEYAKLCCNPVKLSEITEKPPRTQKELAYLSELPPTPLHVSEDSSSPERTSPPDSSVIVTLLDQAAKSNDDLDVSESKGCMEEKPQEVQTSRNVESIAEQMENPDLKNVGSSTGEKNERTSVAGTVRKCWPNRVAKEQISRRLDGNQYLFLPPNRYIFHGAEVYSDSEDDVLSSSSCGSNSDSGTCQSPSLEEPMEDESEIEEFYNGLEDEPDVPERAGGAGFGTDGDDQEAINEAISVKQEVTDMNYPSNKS
Method: For the determination of kinetic constants for all sirtuin mediated reactions solutions containing 20 mM TRIS/HCl pH 7.8, 150 mM NaCl, 5 mM MgCl2 (assay-buffer), 500 μM NAD^+ and varying substrate concentrations (0.5–100 μM) were used. Deacylation was started by adding human sirtuin to reach a final concentration of 0.01–0.5 μM. Enzyme-catalyzed reaction was stopped using TFA (1% final concentration) after 1 min to 180 min of incubation at 37 °C depending on substrate reactivity. The cleavage rate of the different TNFα peptide derivatives was analyzed using analytical reversed phase HPLC. 40 to 80 μl of compounds or reaction solutions were injected and separated using a linear gradient from 5% to 95% solvent B within 6min. The product and substrate peaks were quantified using absorbance at 220 nm or 365 nm (absorption of 3-Nitrotyrosyl moiety). The peak areas were integrated and converted to initial velocity rates calculated from the ratio of product area to total peak area. Linear regression of conversions plotted against time yielded reaction rates in μM/min (relative conversion below 20% of substrate). […]
Supplementary Figure S4. […] Reaction was stopped using TFA (1% final concentration) and the consumption of 3 was analyzed using HPLC. […]

Sirt6 [3] = molecular target: T1, Sirt6; assay: Isomer specific inhibition by thioxo peptides, HPLC; format: biochemical; details: substrate 2a
Method: After 30 min incubation at 20 °C reaction was stopped using 10% TFA solution. Inhibitor solutions were irradiated at 254 nm for 5 min. Separated isomers were applied in concentrations from 1 to 10 μM. The influence of cis content on sirtuin inhibition using fluorescence spectrometer was determined with 500 μM NAD^+, 5 μM 3, 0.1 μM Sirt2 and 0.1 μM 9. Reactions were done at 20 °C with 9 in GS and PSS (after 5 min irradiation at 254 nm). 9 in PSS was applied immediately after irradiation (transfer time ~5 s) and started directly by adding sirtuin. Reactions were measured within 1 min to avoid re-isomerization.
Supplementary Figure S36. Determination of IC50 value of 8 for Sirt6 in GS (?) and PSS (π). Data were fitted with U(%) = Umin(%) + (Umax(%) – Umin(%))/(1+10^(x-logIC50)) with U(%) percental turmover of substrate 2a; Umin(%) lowest turnover of substrate; Umax(%) maximal turnover of substrate (n=3).
Supplementary Figure S37. Inhibition of Sirt6 by 8 (?) and 9 (π).Data were fitted with U(%) = Umin(%) + (Umax(%) – Umin(%))/(1+10^(x-logIC50)) with U(%) percental turmover of substrate; Umin(%) lowest turnover of substrate 2a; Umax(%) maximal turnover of substrate (n=3).
Supplementary Figure S38. Determination of IC50 of 9 for Sirt6 with 72.4 % cis- (π) and 70.3 % (?) trans-content. Measurements were done with 10 µM peptide substrate (big figure) or 30 µM (small figure). Data were fitted with U(%) = Umin(%) + (Umax(%) – Umin(%))/(1+10^(x-logIC50)) with U(%) percental turmover of substrate 2a; Umin(%) lowest turnover of substrate; Umax(%) maximal turnover of substrate (n=3).

Sirt2 = molecular target: T3, Sirt2 (Homo sapiens, UniProt Q8IXJ6); assay: Ki determination with substrate 3, 96-well MTP fluorescence reader; format: biochemical
T3 construct: made in house
T3 sequence (Q8IXJ6 1-389): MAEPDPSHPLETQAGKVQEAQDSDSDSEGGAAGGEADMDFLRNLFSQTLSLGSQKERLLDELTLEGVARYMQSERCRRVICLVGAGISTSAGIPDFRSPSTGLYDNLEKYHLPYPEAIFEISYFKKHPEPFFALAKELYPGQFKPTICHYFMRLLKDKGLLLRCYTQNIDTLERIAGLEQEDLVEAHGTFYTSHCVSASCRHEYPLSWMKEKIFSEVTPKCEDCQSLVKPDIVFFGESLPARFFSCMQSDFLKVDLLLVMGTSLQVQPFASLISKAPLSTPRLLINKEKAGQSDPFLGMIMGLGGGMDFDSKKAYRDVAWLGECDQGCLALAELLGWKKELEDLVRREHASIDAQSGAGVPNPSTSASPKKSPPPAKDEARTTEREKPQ
Method: The microtiter plate fluorescence measurements were performed on a Tecan Infinite M200 microplate reader (Maennedorf, Switzerland) at λEx = 320 nm and λEm = 408 nm (lag time 9 μs, integration time […], gain 160, 170 or 182). The reactions (total volume 100 μl) were measured in black low-binding 96-well microtiter plates (NUNC). Assay-buffer, 500 μM NAD^+ and 0.07–200 μM peptide substrate were pre-incubated at 37 °C for 5 min. The reaction was started by adding human sirtuin (0.01–0.5 μM). The signals were converted into product concentration via calibration lines and the resulting data were evaluated as described above (single fluorescence measurement). The determination for the kinetic constants of NAD^+ was performed in the same way, except that the peptide concentration was fixed (5, 25 or 200 μM) and the NAD^+ concentration was varied (10–1500 μM). All measurements were done in duplicates. The reaction mixture for the calibration lines was prepared as described for the single fluorescence measurements. […] The resulting plots were analyzed by a competitive inhibition and non-competitive inhibition model using the program Sigma Plot 8. The linear regression of the apparent KM-values against the corresponding inhibitor concentration yielded the inhibitor constant Ki for competitive inhibition. The Ki for non-competitive inhibition was determined by linear regression of 1/apparent Vmax against the corresponding inhibitor concentration. The negative Ki value can be determined as intersection with the X-axis from these plots.
Supplementary Figure S15. Kinetic characteristics for sirtuin inhibitor 8. The reactions were performed with 0.01 µM Sirt2 /0.1 µM Sirt3 /0.5 µM Sirt6 and 500 µM NAD^+ and varying concentrations of 3 (0.07-100 µM). […] The negative Ki value can be determined as intersection with the X-axis from the Vmax^app-1/I plot.
Supplementary Figure S16. […] The negative Ki value can be determined as intersection with the X-axis from the Vmax^app-1/I plot.
Supplementary Figure S17. […] The negative Ki value can be determined as intersection with the X-axis from the Vmax^app-1/I plot.

influence on Sirt1 mediated deacylation of 3 (Sirt1): no significant influence
SMILES: Oc1ccc(/C=C/c2cc(O)cc(O)c2)cc1 [resveratrol]

IC50 (Sirt6 [3]; inhibitor with 29.7% cis isomer (HPLC-separated)): 1.7 ± 0.5 µM
IC50 (Sirt6 [3]; inhibitor with 72.4% cis isomer (HPLC-separated)): 0.6 ± 0.1 µM
SMILES: CCCCCCCCCCCCCC(=S)N(C)CCCC[C@H](NC(=O)[C@H](CCCCN)NC(=O)[C@@H]1CCCN1C(=O)[C@H](CC(C)C)NC(=O)[C@H](C)NC(=O)[C@H](CCC(=O)O)NC(C)=O)C(=O)N[C@H](C(=O)NCC(=O)NCC(N)=O)[C@@H](C)O [compound 9] (Ac-EALPK[X1]TGG-NH2)

Ki (Sirt2; Sirt2 0.01 µM, varying substrate 3, 500 µM NAD+, read-out: Ki (3)): 0.6 ± 0.2 µM
Ki (Sirt2; Sirt2, substrate 3, read-out: Ki-value): 0.56 µM
SMILES: CC(C)[C@@H]1NC(=O)[C@H](Cc2c[nH]cn2)NC(=O)[C@H](Cc2ccc(O)cc2)NC(=O)[C@H]([C@@H](C)O)NC(=O)[C@H](Cc2c[nH]cn2)NC(=O)[C@H](Cc2ccc(O)cc2)NC(=O)CSC[C@@H](C(N)=O)NC(=O)[C@H](Cc2ccc(O)cc2)NC(=O)[C@H](Cc2ccc(O)cc2)NC(=O)[C@H](CC(N)=O)NC(=O)[C@H]([C@@H](C)O)NC(=O)[C@H](CCCNC(=N)N)NC(=O)[C@H](CCCNC(=N)N)NC(=O)[C@H](CCCCNC(=O)C(F)(F)F)NC1=O [S2iL5] ({CH2CO}-YHTYHVK(Tfa)RRTNYYC-NH2; thioether N-14)

More lines, now with the values behind:

SMILES: O=c1c(O)c(-c2ccc(O)c(O)c2)oc2cc(O)cc(O)c12 [Quercetin]
type of inhibition with respect to the peptide substrate (Sirt6 [1]): non-competitive
inhibition of enzymatic activity (Sirt6 [2]): 52%

SMILES: NC(=O)C1CCCc2c1[nH]c1ccc(Cl)cc21 (centres unmarked) [Ex-527]
Ki (Sirt6 [1]; Sirt6 0.5 µM, varying substrate 3, 500 µM NAD+ (saturating)): 100 ± 11 µM
type of inhibition with respect to the peptide substrate (Sirt6 [1]): non-competitive
inhibition of enzymatic activity (Sirt6 [2]): 56%
